The text below walks through data of patent US20240425938A1, “COMPOSITIONS AND METHODS FOR CHAR[…] FREQUENCY MUTATIONS” (The Broad Institute, Inc., priority 2022, published 2024).

Each structure is given as a SMILES string.

The test system of this test is P. aeruginosa isolates. It is filed as cell-based, Pseudomonas aeruginosa.

Take `CC(C)(O/N=C(\C(=O)N[C@@H]1C(=O)N2C(C(=O)[O-])=C(C[n+]3ccccc3)CS[C@H]12)c1csc(N)n1)C(=O)O` [ceftazidime]: the “Antibiotic resistance profile of isolates” value is listed as “resistance”. The value for `C[C@@H](O)[C@H]1C(=O)N2C(C(=O)O)=C(S[C@@H]3CN[C@H](C(=O)N(C)C)C3)[C@H](C)[C@H]12` [meropenem] was “resistance”.
